The subject of the series is rodent lifetime carcinogenesis bioassay, tumor incidence TD50. Briefly: chronic cancer bioassays in animals – CPDB, compiled studies (AID 1745844).

Calls of active or inactive are those of the source. No rule for the calls is given here.

For `Oc1ccc(O)cc1`, the TD50 (mouse, strain B6C3F1, females, by gavage, site: liver, lesion: hepatocellular adenoma + hepatocellular carcinoma + neoplastic nodule, dosed 103 weeks, study length 105 weeks) was found to be 122 mg/kg/day; the TD50 (mouse, strain B6C3F1, females, by gavage, site: liver, lesion: hepatocellular adenoma + hepatocellular carcinoma, dosed 103 weeks, study length 105 weeks) was 122 mg/kg/day; the TD50 (mouse, strain B6C3F1, females, by gavage, site: liver, lesion: hepatocellular adenoma, dosed 103 weeks, study length 105 weeks) came to 65 mg/kg/day; the TD50 (mouse, strain B6C3F1, females, by gavage, site: lung, lesion: alveolar/bronchiolar adenoma + alveolar/bronchiolar carcinoma, dosed 103 weeks, study length 105 weeks) stood at 19200 mg/kg/day; the TD50 (mouse, strain B6C3F1, females, in feed, site: liver, lesion: hepatocellular adenoma, dosed 96 weeks, study length 96 weeks) was 17900 mg/kg/day; the TD50 (mouse, strain B6C3F1, males, by gavage, site: any site (literature study), lesion: several types, types named in the paper, dosed 103 weeks, study length 104 weeks) is 497 mg/kg/day (inactive). For the same compound, the TD50 by setting is: (mouse, strain B6C3F1, males, by gavage, site: liver, lesion: hepatocellular adenoma + hepatocellular carcinoma + neoplastic nodule, dosed 103 weeks, study length 104 weeks) 383 mg/kg/day; (mouse, strain B6C3F1, males, in feed, site: kidney, lesion: adenoma, dosed 96 weeks, study length 96 weeks) 5320 mg/kg/day; (mouse, strain B6C3F1, males, in feed, site: liver, lesion: hepatocellular adenoma, dosed 96 weeks, study length 96 weeks) 1450 mg/kg/day; (rat, strain F344/DuCrj, females, in feed, site: liver, lesion: hepatocellular carcinoma, dosed 104 weeks, study length 104 weeks) 8080 mg/kg/day; (rat, strain F344/DuCrj, males, in feed, site: kidney, lesion: adenoma, dosed 104 weeks, study length 104 weeks) 349 mg/kg/day; (rat, strain Fischer 344, females, by gavage, site: all sites, lesion: mononuclear-cell leukemia, dosed 103 weeks, study length 104 weeks) 55.8 mg/kg/day. Also, the TD50 was 51.6 mg/kg/day (rat, strain Fischer 344, females, by gavage, site: any site (literature study), lesion: several types, types named in the paper, dosed 103 weeks, study length 104 weeks); 48.2 mg/kg/day (rat, strain Fischer 344, males, by gavage, site: adrenal medulla, lesion: pheochromocytoma benign, bilateral + pheochromocytoma, benign, dosed 103 weeks, study length 104 weeks); 40.4 mg/kg/day (rat, strain Fischer 344, males, by gavage, site: adrenal medulla, lesion: pheochromocytoma benign, bilateral + pheochromocytoma, malignant + pheochromocytoma, benign, dosed 103 weeks, study length 104 weeks); 41.8 mg/kg/day (rat, strain Fischer 344, males, by gavage, site: any site (literature study), lesion: several types, types named in the paper, dosed 103 weeks, study length 104 weeks); 64.7 mg/kg/day (rat, strain Fischer 344, males, by gavage, site: kidney, lesion: tubule adenoma, dosed 103 weeks, study length 104 weeks); 5710 mg/kg/day (rat, strain Fischer 344, males, by gavage, site: liver, lesion: hepatocellular adenoma + hepatocellular carcinoma + neoplastic nodule, dosed 103 weeks, study length 104 weeks).
For the compound `CCCCNC(=O)N(CCCC)N=O`, the TD50 was 32 mg/kg/day (rat, strain Donryu, females, in drinking water, site: all sites, lesion: leukemia, dosed 75 weeks, study length 75 weeks); 2.67 mg/kg/day (rat, strain Donryu, females, in drinking water, site: any site (literature study), lesion: several types, types named in the paper, dosed 75 weeks, study length 75 weeks); 303 mg/kg/day (rat, strain Donryu, females, in drinking water, site: liver, lesion: adenoma, dosed 75 weeks, study length 75 weeks); 22.7 mg/kg/day (rat, strain Donryu, females, in drinking water, site: mammary gland, lesion: adenocarcinoma, dosed 75 weeks, study length 75 weeks); 2.23 mg/kg/day (rat, strain Donryu, females, in drinking water, site: mammary tissue, wider than the gland, lesion: fibroadenoma, dosed 75 weeks, study length 75 weeks); 4.28 mg/kg/day (rat, strain Donryu, females, in drinking water, site: mammary tissue, wider than the gland, lesion: several types, types named in the paper, dosed 75 weeks, study length 75 weeks). The compound further returned a TD50 (rat, strain Donryu, females, in drinking water, site: uterus, lesion: several types, types named in the paper, dosed 75 weeks, study length 75 weeks) of 15.3 mg/kg/day.
Take `CCOC(=O)[C@H](CCc1ccccc1)N[C@@H](C)C(=O)N1Cc2ccccc2C[C@H]1C(=O)O`: the TD50 (mouse, strain B6C3F1, females, by gavage, site: any site (literature study), lesion: several types, types named in the paper, dosed 104 weeks, study length 104 weeks) was 8160 mg/kg/day (inactive); the TD50 (mouse, strain B6C3F1, females, by gavage, site: liver, lesion: hepatocellular carcinoma, dosed 104 weeks, study length 104 weeks) is 966 mg/kg/day (inactive); the TD50 (mouse, strain B6C3F1, females, by gavage, site: lung, lesion: adenoma, dosed 104 weeks, study length 104 weeks) is 5070 mg/kg/day (inactive); the TD50 (mouse, strain B6C3F1, females, by gavage, site: pituitary gland, lesion: adenoma, dosed 104 weeks, study length 104 weeks) was 128 mg/kg/day (inactive); the TD50 (mouse, strain B6C3F1, males, by gavage, site: any site (literature study), lesion: several types, types named in the paper, dosed 104 weeks, study length 104 weeks) was 221 mg/kg/day (inactive); the TD50 (mouse, strain B6C3F1, males, by gavage, site: liver, lesion: hepatocellular adenoma, dosed 104 weeks, study length 104 weeks) is 623 mg/kg/day (inactive). The TD50 is, setting by setting: (mouse, strain B6C3F1, males, by gavage, site: liver, lesion: hepatocellular carcinoma, dosed 104 weeks, study length 104 weeks) 1640 mg/kg/day (inactive); (mouse, strain B6C3F1, males, by gavage, site: lung, lesion: adenoma, dosed 104 weeks, study length 104 weeks) 2790 mg/kg/day (inactive); (mouse, strain B6C3F1, males, by gavage, site: lung, lesion: carcinoma, dosed 104 weeks, study length 104 weeks) 2810 mg/kg/day (inactive). Also, the carcinogen call by setting is: (mouse, strain B6C3F1, females, by gavage, site: liver, lesion: hepatocellular adenoma, dosed 104 weeks, study length 104 weeks) “negative (inactive)”; (rat, strain Wistar, females, by gavage, site: any site (literature study), lesion: several types, types named in the paper, dosed 104 weeks, study length 104 weeks) “negative (inactive)”; (rat, strain Wistar, females, by gavage, site: liver, lesion: several types, types named in the paper, dosed 104 weeks, study length 104 weeks) “negative (inactive)”; (rat, strain Wistar, males, by gavage, site: any site (literature study), lesion: several types, types named in the paper, dosed 104 weeks, study length 104 weeks) “negative (inactive)”; (rat, strain Wistar, males, by gavage, site: liver, lesion: several types, types named in the paper, dosed 104 weeks, study length 104 weeks) “negative (inactive)”.
For the compound `CC(C)NCC(O)c1ccc(NS(C)(=O)=O)cc1` (configuration not stated), the TD50 (mouse, strain Charles River CD1, females, in feed, site: any site (literature study), lesion: benign tumor, dosed 78 weeks, study length 92 weeks) was 1740 mg/kg/day (inactive); the TD50 (mouse, strain Charles River CD1, females, in feed, site: any site (literature study), lesion: several types, types named in the paper, dosed 78 weeks, study length 92 weeks) was 1910 mg/kg/day (inactive); the TD50 (mouse, strain Charles River CD1, females, in feed, site: lung, lesion: adenoma, dosed 78 weeks, study length 92 weeks) is 3500 mg/kg/day (inactive); the TD50 (mouse, strain Charles River CD1, females, in feed, site: lung, lesion: carcinoma, dosed 78 weeks, study length 92 weeks) is 24500 mg/kg/day (inactive); the TD50 (mouse, strain Charles River CD1, males, in feed, site: lung, lesion: adenoma, dosed 78 weeks, study length 92 weeks) is 31400 mg/kg/day (inactive); the TD50 (rat, strain Long-Evans, females, in feed, site: any site (literature study), lesion: malignant tumor, dosed 78 weeks, study length 104 weeks) was 1600 mg/kg/day (inactive). The TD50 (rat, strain Long-Evans, females, in feed, site: any site (literature study), lesion: several types, types named in the paper, dosed 78 weeks, study length 104 weeks) was 477 mg/kg/day (inactive); the TD50 (rat, strain Long-Evans, females, in feed, site: liver, lesion: cholangioma, dosed 78 weeks, study length 104 weeks) is 12600 mg/kg/day (inactive); the TD50 (rat, strain Long-Evans, males, in feed, site: any site (literature study), lesion: malignant tumor, dosed 78 weeks, study length 104 weeks) is 2270 mg/kg/day (inactive); the TD50 (rat, strain Long-Evans, males, in feed, site: any site (literature study), lesion: several types, types named in the paper, dosed 78 weeks, study length 104 weeks) is 796 mg/kg/day (inactive); the TD50 (rat, strain Long-Evans, males, in feed, site: liver, lesion: hepatocellular adenoma, dosed 78 weeks, study length 104 weeks) is 309000 mg/kg/day (inactive); the TD50 (rat, strain Long-Evans, males, in feed, site: liver, lesion: hepatocellular carcinoma, dosed 78 weeks, study length 104 weeks) was 12400 mg/kg/day (inactive). For the same compound, the carcinogen call reads like this: (mouse, strain Charles River CD1, females, in feed, site: any site (literature study), lesion: malignant tumor, dosed 78 weeks, study length 92 weeks) “negative (inactive)”; (mouse, strain Charles River CD1, females, in feed, site: liver, lesion: one or several types, types not named, dosed 78 weeks, study length 92 weeks) “negative (inactive)”; (mouse, strain Charles River CD1, males, in feed, site: any site (literature study), lesion: benign tumor, dosed 78 weeks, study length 92 weeks) “negative (inactive)”; (mouse, strain Charles River CD1, males, in feed, site: any site (literature study), lesion: malignant tumor, dosed 78 weeks, study length 92 weeks) “negative (inactive)”; (mouse, strain Charles River CD1, males, in feed, site: any site (literature study), lesion: several types, types named in the paper, dosed 78 weeks, study length 92 weeks) “negative (inactive)”; (mouse, strain Charles River CD1, males, in feed, site: liver, lesion: adenoma, dosed 78 weeks, study length 92 weeks) “negative (inactive)”. Also, the carcinogen call by setting is: (mouse, strain Charles River CD1, males, in feed, site: liver, lesion: carcinoma, dosed 78 weeks, study length 92 weeks) “negative (inactive)”; (mouse, strain Charles River CD1, males, in feed, site: lung, lesion: carcinoma, dosed 78 weeks, study length 92 weeks) “negative (inactive)”; (rat, strain Long-Evans, females, in feed, site: any site (literature study), lesion: benign tumor, dosed 78 weeks, study length 104 weeks) “negative (inactive)”; (rat, strain Long-Evans, males, in feed, site: any site (literature study), lesion: benign tumor, dosed 78 weeks, study length 104 weeks) “negative (inactive)”.
For the compound `C=C1C[C@@]23CC[C@H]4[C@@](C)(CCC[C@@]4(C)C(=O)O[C@@H]4O[C@H](CO)[C@@H](O)[C@H](O)[C@H]4O)[C@@H]2CC[C@]1(O[C@@H]1O[C@H](CO)[C@@H](O)[C@H](O)[C@H]1O[C@@H]1O[C@H](CO)[C@@H](O)[C@H](O)[C@H]1O)C3`, the TD50 by setting is: (rat, strain F344/DuCrj, females, in feed, site: any site (literature study), lesion: several types, types named in the paper, dosed 104 weeks, study length 108 weeks) 34400 mg/kg/day (inactive); (rat, strain F344/DuCrj, males, in feed, site: liver, lesion: hepatocellular carcinoma, dosed 104 weeks, study length 108 weeks) 101000 mg/kg/day (inactive). Further, the carcinogen call was “negative (inactive)” (rat, strain F344/DuCrj, females, in feed, site: liver, lesion: one or several types, types not named, dosed 104 weeks, study length 108 weeks); “negative (inactive)” (rat, strain F344/DuCrj, males, in feed, site: any site (literature study), lesion: several types, types named in the paper, dosed 104 weeks, study length 108 weeks); “negative (inactive)” (rat, strain F344/DuCrj, males, in feed, site: liver, lesion: hepatocellular adenoma, dosed 104 weeks, study length 108 weeks).
Turning to `ClCOCC(COCCl)OCCl`, the TD50 (mouse, strain Ha/ICR, females, i.p., site: abdomen, lesion: sarcoma, dosed 76 weeks, study length 76 weeks) is 3.44 mg/kg/day.

By TD50 is commonly meant the 50% point of the dose-response relation for the toxic effect studied.

Source of the values: PubChem BioAssay AID1745844 (Carcinogenic Potency Database (CPDB), 2022).
